Data: patent US12325676B2, “Cationic lipid compound and composition for delivery of nucleic acids and use thereof” (Shenzhen Rhegen Biotechnology Co., Ltd., priority 2022, dated 2025)

Tested on: BALB/c mice
Test: Novel coronavirus mRNA vaccine delivered by LNP, intramuscular immunization, binding antibody titer by ELISA
Details: mouse, in vivo

SMILES: CCCCCCCCSCC(C)C(=O)OCCCCCN(CCO)CCCCCCCC(=O)OC(CCCCCCCC)CCCCCCCC (stereo not shown) [Compound 35]
- binding antibody titer: 1.4 million
